Assay results from ChEMBL document CHEMBL2073911, “Sensitivity of bile acid transport by organic anion-transporting polypeptides to intracellular pH” (Biochim Biophys Acta, 2003).

Biological target: T1, Solute carrier organic anion transporter family member 1A1 (Rattus norvegicus, UniProt P46720)
T1 sequence (P46720 whole entry): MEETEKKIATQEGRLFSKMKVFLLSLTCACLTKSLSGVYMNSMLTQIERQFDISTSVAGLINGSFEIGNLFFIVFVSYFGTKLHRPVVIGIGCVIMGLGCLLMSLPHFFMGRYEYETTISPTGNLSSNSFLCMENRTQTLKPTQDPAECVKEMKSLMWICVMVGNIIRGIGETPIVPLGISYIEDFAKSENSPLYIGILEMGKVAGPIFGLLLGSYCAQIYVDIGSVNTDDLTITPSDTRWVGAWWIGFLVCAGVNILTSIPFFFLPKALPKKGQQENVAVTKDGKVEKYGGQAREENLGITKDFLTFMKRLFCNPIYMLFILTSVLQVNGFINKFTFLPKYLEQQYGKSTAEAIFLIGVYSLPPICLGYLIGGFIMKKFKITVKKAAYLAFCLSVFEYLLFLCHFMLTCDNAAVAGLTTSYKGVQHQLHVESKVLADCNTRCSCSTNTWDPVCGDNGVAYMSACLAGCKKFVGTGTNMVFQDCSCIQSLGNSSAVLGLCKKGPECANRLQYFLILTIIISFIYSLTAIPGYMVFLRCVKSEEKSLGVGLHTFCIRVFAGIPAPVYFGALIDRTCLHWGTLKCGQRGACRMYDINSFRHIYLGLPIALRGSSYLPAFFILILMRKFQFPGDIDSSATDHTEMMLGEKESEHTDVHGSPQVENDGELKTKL
Test: TP_TRANSPORTER: uptake in Oatp1-expressing CHO-03 cell
Assay type: functional, cell-based
Details: hamster

Activity: substrate [+]
SMILES: C[C@H](CCC(=O)NCC(=O)O)[C@H]1CC[C@H]2[C@@H]3[C@H](O)C[C@@H]4C[C@H](O)CC[C@]4(C)[C@H]3C[C@H](O)[C@]12C [GLYCOCHOLIC ACID]
